Source: patent publication US20230128252A1, “PHARMACEUTICAL COMPOSITIONS” (Shenzhen Pharmacin Co., Ltd., priority 2020, published 2023)
Values after ≈ are worked out from the molar mass of the structure shown. Where two headings read alike, the source gives them in different places.

What was measured:
[1] = Solubility of clofazimine in aqueous media; type: physicochemical; settings: aqueous medium, aqueous with cosolvent or surfactant or cyclodextrin, thermodynamic from solid; pH 4.5 + 0.25% SDS, 25° C.
Description: Clofazimine was added to various aqueous media, at various pH values (2-5 mL) in a 10 mL glass vial, at 25° C., with stirring. […] This cycle was repeated until no further dissolution was observable. The suspension was then centrifuged and the supernatant filtered by microfiltration.

[2] = blood concentration after topical application in minipigs; type: in vivo, Bama minipigs
Description: Studies were performed to evaluate the blood concentration-time curve after topical application of Formulations 10-12 (clofazimine 0.01%, 0.03% and 0.1%) in Bama minipigs. 24 Bama minipigs (12 male and 12 female) were randomly divided into 4 groups (n=6), three groups received a single topical application of Formulations 10-12 (clofazimine 0.01%, 0.03% and 0.1%). […] In above 4 groups, Formulations 10-12 were applicated to 5% body surface area of Bama minipigs, that is, 1.5 mg ointment/cm^2 (corresponding to 0.15, 0.45, 1.5 μg API/cm^2 respectively). […] A validated LC-MS/MS method was used to determine the concentration of clofazimine in plasma and the pharmacokinetic parameters were calculated (the standard curve range of clofazimine is 0.0100˜10.0 ng/mL).

[3] = cited from earlier work; for time to reach peak plasma concentration (Tmax): oral administration
[4] = Solubility of clofazimine in various solvents; settings: 25 °C, thermodynamic from solid
Description: Clofazimine was added to various solvents (2-5 mL) in a 10 mL glass vial, at 25° C., with stirring. […] This cycle was repeated until no further dissolution was observable. The suspension was then centrifuged and the supernatant filtered by microfiltration.

CC(C)/N=c1\cc2n(-c3ccc(Cl)cc3)c3ccccc3nc-2cc1Nc1ccc(Cl)cc1 [Clofazimine, N,5-bis(4-chlorophenyl)-3-propan-2-ylimino phenazin-2-amine]
solubility at 24 h [1]: 0.71 mg/mL
clofazimine in plasma ([2]; repeated dose (0.03%, bid, 9 applications)): a very low level of clofazimine could be detected in plasma
clofazimine in plasma ([2]; single dose groups, majority of the samples): no clofazimine was detectable
clofazimine in plasma ([2]; single dose groups, minority of samples in the 0.01% and 0.1% groups, 1.5 mg ointment/cm^2, 5% body surface area): very low level of clofazimine (close to the detection limit of the instrument)
gender difference in clofazimine absorption ([2]; topical, male and female): No significant gender difference
time to reach peak plasma concentration (Tmax) ([3]; fasted state): 12 h
time to reach peak plasma concentration (Tmax) ([3]; fed conditions): 8 h
absorption rate ([3]; oral, FDA Label information): 45-62%
solubility at 24 h ([4]; organic solvent or mixture): 7.48 mg/mL (≈ 15.8 mM)
solubility at 24 h ([4]; solvent, oil or lipid, Solubility, Castor oil): 11 mg/mL (≈ 23.3 mM)
solubility at 24 h ([4]; solvent, oil or lipid, Solubility, Coconut oil): 5.1 mg/mL (≈ 10.8 mM)
solubility at 24 h ([4]; solvent, oil or lipid, Solubility, Corn oil): 5.8 mg/mL (≈ 12.3 mM)
solubility at 24 h ([4]; solvent, oil or lipid, Solubility, Glyceryl monooleate): 8.86 mg/mL (≈ 18.7 mM)
solubility at 24 h ([4]; solvent, oil or lipid, Solubility, Isopropyl myristate): 8.51 mg/mL (≈ 18 mM)
solubility at 24 h ([4]; solvent, oil or lipid, Solubility, Soybean oil): 5.1 mg/mL (≈ 10.8 mM)
solubility at 24 h ([4]; solvent, organic solvent or mixture, Solubility, Ethanol): 0.95 mg/mL (≈ 2.01 mM)
solubility at 24 h ([4]; solvent, organic solvent or mixture, Solubility, Glycerol): 0.49 mg/mL (≈ 1.04 mM)
solubility at 24 h ([4]; solvent, organic solvent or mixture, Solubility, Labrasol): 25.4 mg/mL (≈ 53.6 mM)
solubility at 24 h ([4]; solvent, organic solvent or mixture, Solubility, Laurocapram): 46.7 mg/mL (≈ 98.7 mM)
solubility at 24 h ([4]; solvent, organic solvent or mixture, Solubility, Oleic acid polyethylene glycol glyceride): 12.2 mg/mL (≈ 25.8 mM)
solubility at 24 h ([4]; solvent, organic solvent or mixture, Solubility, PEG 400, 25° C.): 9.51 mg/mL (≈ 20.1 mM)
solubility at 24 h ([4]; solvent, organic solvent or mixture, Solubility, Polyglycerol fatty acid ester): 4.96 mg/mL (≈ 10.5 mM)
solubility at 24 h ([4]; solvent, organic solvent or mixture, Solubility, Polyoxyethylene hydrogenated castor oil): 8.67 mg/mL (≈ 18.3 mM)
solubility at 24 h ([4]; solvent, organic solvent or mixture, Solubility, Propane 1,2-diol): 0.42 mg/mL (≈ 0.887 mM)
solubility at 24 h ([4]; solvent, organic solvent or mixture, Solubility, Transcutol): 21.6 mg/mL (≈ 45.5 mM)
solubility at 24 h ([4]; solvent, organic solvent or mixture, Solubility, Tween 20, 25° C.): 7.4 mg/mL (≈ 15.6 mM)
solubility at 24 h ([4]; solvent, organic solvent or mixture, Solubility, Tween 80, 25° C.): 10.1 mg/mL (≈ 21.3 mM)
